Values quoted from earlier work as cited in patent publication US20050171434A1, “Chromophore probes for optical imaging” (VisEn Medical, Inc., priority 2002, published 2005).

λem (emission wavelength): 694 nm | λex (excitation wavelength): 675 nm
Substance: Cy5.5
